Data from patent US20250049709A1, “ZIPRASIDONE FORMULATIONS” (BELOTECA, INC., priority 2021, published 2025).
≈ marks a conversion by molar mass, not a printed value. Where a name gives a salt, the structure may show the parent alone. Read-outs that look alike come from different tables or passages of the source.

Assays:
[1] = cited from earlier work
[2] = pH value of 1% w/v aqueous ziprasidone suspension; type: physicochemical; conditions: 1% w/v aqueous ziprasidone suspension at 25° C.
Experimental: This pH value corresponds to a pH value of ziprasidone in water determined on a 1% w/v aqueous ziprasidone suspension at 25° C.

| Molecule | solubility in water [1] [µg/mL] | solubility in water ([1]; 25° C.) [µg/mL] | pH value of ziprasidone in water [2] |
| --- | --- | --- | --- |
| ziprasidone mesylate trihydrate | 13 | – | – |
| O=C1Cc2cc(CCN3CCN(c4nsc5ccccc45)CC3)c(Cl)cc2N1 [ziprasidone hydrochloride] | 7.18 | – | – |
| O=C1Cc2cc(CCN3CCN(c4nsc5ccccc45)CC3)c(Cl)cc2N1 [ziprasidone] | – | 2130 (≈ 5.16 mM) | ~3.2 |
